Assay results reported in patent publication US8258173B2, “Melatonin derivatives and their use as antioxidants” (University of Sunderland, priority 2006, dated 2012).

test system: lipid peroxidation in bovine brain extract liposomes (hydroxyl radicals); assay: Antioxidant test, TBA assay (lipid peroxidation); type: biochemical; settings: brain extract liposomes, FeCl3/ascorbic acid, 37° C. 30 min, absorbance 532 nm
Method: Ascorbic acid and propylgallate were purchased from Aldrich. N-Butanol and ethanol were purchased from BDH. Butylated hydroxytoluene (BHT), bovine brain extract, FeCl3, thiobarbituric acid (TBA) and PBS (phosphate buffered saline) tablets were purchased from Sigma. For spectroscopic measurements, a UNICAM UVNIS Spectrometer (UV2) was used. A well-controlled water bath was utilized for incubating the test system at the required temperatures. Plastic falcon tubes were used to accommodate the assay. Accurate pipettes were used to dispense the reagents.
The following liposomes and reagents were prepared in order to carry out the experiments. • 1. Brain extract (50 mg) was weighed into a clean universal container. About 7 glass balls and 10 cm^3 of PBS were added. The mixture was sonicated in an ice-water bath until the lipid was suspended and the suspension was homogeneous and milky in appearance. The suspension was kept cool during the sonication, although care was taken not to overfill the bath with ice as the sonication becomes relatively ineffective. • 2. Ascorbic acid (0.0176 g) was dissolved in deionised water and diluted in 100 cm^3 of volumetric flask. • 3. Ferric chloride hexahydrate (0.0270 g) was dissolved in deionized water and diluted in 100 cm^3 of volumetric flask. • 4. Sodium hydroxide (1 g) was dissolved in 500 cm^3 of deionized water. • 5. Phosphate buffered saline was prepared (PBS, pH=7.4). • 6. HCl (338 cm^3, 37%) was diluted with 162 cm^3 deionized water to give 500 cm^3 of 25% HCl. • 7. BHT (5 g) was dissolved in 250 cm^3 ethanol. • 8. TBA (5 g) was added to 500 cm^3, 50 mM NaOH, and the solution was heated with stirring to dissolve all the TBA. • 9. PG (0.1061 g) was dissolved in 500 cm^3 deionized water. • 10. A stock solution of test compound at 10 mg/cm^3 was prepared, the concentration depended on the estimated activity of the substance, and serial dilutions were made to obtain 5.0, 2.5, 1.25, 0.625, 0.3125 and 0.15625 mg/cm^3. The stock solution and these six dilutions were screened in the lipid peroxidation—TEA test, in attempt to obtain a dose response curve for antioxidant efficacy against concentration for the substance.
Sixty-eight centrifuge tubes were numbered. • 1. Test substance (0.1 cm^3) was added to tubes; 10 mg/cm^3 to No. 13-20 of tubes, 5 mg/cm^3 to No. 21-28, 2.5 mg/cm^3 to No. 29-36, 1.25 mg/cm^3 to No. 37-44, 0.625 mg/cm^3 to No. 45-52, 0.3125 mg/cm^3 to No. 53-60, 0.15625 mg/cm^3 to No. 61-68. • 2. PG (0.1 cm^3) was added to 9-12. • 3. Ethanol (0.1 cm^3) was added to No. 5-8. • 4. Deionized water (0.3 cm^3) was added to No. 1-4, deionized water (0.4 cm^3) was added to No. 17-20, 25-28, 33-36, 41-44, 49-52, 57-60, and 65-68. • 5. Liposome (0.2 cm^3) was added to No. 1-4, 5-8, 9-12, 13-16, 21-24, 29-32, 37-40, 45-48, 53-56 and 61-64. • 6. PBS (0.5 cm^3) was added to all tubes. • 7. Ferric chloride (0.1 cm^3, 1 mM) was added to No. 5-8, 9-12, 13-16, 21-24, 29-32, 37-40, 45-48, 53-56, and 61-64. • 8. Ascorbic acid (0.1 cm^3, 1 mM) was added to No. 5-8, 9-12, 13-16, 21-24, 29-32, 37-40, 45-48, 53-56 and 61-64. • 9. The tubes were incubated at 37° C. for 30 min. • 10. BHT (0.1 cm^3, 2%), TBA (0.5 cm^3, 1%) and HCl (0.5 cm^3, 25%) were added to all tubes. • 11. The tubes were heated at 85-90° C. for […]. • 12. The tubes were removed from heater and cooled. • 13. N-Butanol (2.5 cm^3) was added to all tubes. The tubes were then shaken to mix and spun at 3500 rpm at room temperature for 10 min. • 14. N-Butanol (2.5 cm^3) was removed and placed in cuvettes. • 15. Absorbance at 532 nm on a spectrophotometer was recorded, using n-butanol as blank. • 16. The mean and standard deviation were calculated. The % inhibition was calculated using equation (1).
[formula] • All data are expressed and mean±SEM (n=4). % inhibition was used to construct the graph and calculate IC50.

Compound	IC50
COc1ccc2[nH]cc(C=C[N+](=O)[O-])c2c1 [5-Methoxy-3-(2-nitroethenyl)-indole]	2510 µM
COc1ccc2[nH]cc(CCN)c2c1OC [4,5-Dimethoxytryptamine]	97 µM
COc1ccc2[nH]cc(CCNC(C)=O)c2c1OC [4-Methoxymelatonin]	280 µM
COc1ccc2[nH]cc(C3C=NN(C(C)=O)C3)c2c1 (stereo not shown) [1-Acetyl-4,5-dihydro-4-(5′-methoxyindol-3′-yl)-1H-pyrazole]	210 µM
COc1ccc2[nH]cc(C(C[N+](=O)[O-])C[N+](=O)[O-])c2c1OC [4,5-Dimethoxy-3-bis(nitromethyl)methylindole]	1910 µM
COc1ccc2[nH]cc(C=C[N+](=O)[O-])c2c1OC [4,5-Dimethoxy-3-(2-nitroethenyl)-indole]	440 µM
COc1cc(OC)c2[nH]cc(C(C[N+](=O)[O-])C[N+](=O)[O-])c2c1 [5,7-Dimethoxy-3-bis(nitromethyl)methylindole]	1660 µM
COc1cc(OC)c2[nH]ccc2c1CCN [4-(2-Aminoethyl)-5,7-dimethoxyindole]	51 µM
COc1cc(OC)c2[nH]ccc2c1C(C[N+](=O)[O-])C[N+](=O)[O-] [5,7-Dimethoxy-4-{2′-nitro-1′-(nitromethyl)ethyl}indole]	3970 µM
COc1cc(OC)c2[nH]ccc2c1C=C[N+](=O)[O-] [5,7-Dimethoxy-4-(2-nitroethenyl)-indole]	600 µM
CC(=O)NCCc1c[nH]c2ccc(O)cc12 [N-Acetylseratonin, N-acetylserotonin, reference compound]	750 µM
COc1cc(OC)c2[nH]cc(C=C[N+](=O)[O-])c2c1 [5,7-Dimethoxy-3-(2-nitroethenyl)-indole]	810 µM
COc1cc(OC)c2[nH]ccc2c1C1C=NN(C(C)=O)C1 (stereo not shown) [1-Acetyl-4,5-dihydro-4-(5′,7′-dimethoxyindol-4′-yl)-1H-pyrazole]	1790 µM

same assay, conditions: scavenging hydroxyl radicals, protection against lipid peroxidation

Compound	antioxidant activity (in words)
COc1ccc2[nH]cc(CCNC(C)=O)c2c1OC [4-Methoxymelatonin]	almost the same antioxidant activity as melatonin
COc1ccc2[nH]cc(C3C=NN(C(C)=O)C3)c2c1 (stereo not shown) [1-Acetyl-4,5-dihydro-4-(5′-methoxyindol-3′-yl)-1H-pyrazole]	almost the same antioxidant activity as melatonin
N-ethylformylmelatonin	almost the same antioxidant activity as melatonin

test system: HPV-16 immortalized human keratinocyte cell line; assay: Cell line test (MTT), keratinocyte proliferation; type: cell-based; settings: HPV-16 immortalized human keratinocytes, 3 days incubation; read-out: MTT assay IG50
Text: 3-[4′,5′-Dimethylthiazol-2′-yl]-2,5-diphenyltetrazolium bromide (MTT), dimethyl sulphoxide (DMSO), isopropranol, foetal calf serum, and trypan blue were purchased from Sigma-Aldrich. Trypsin 250 was purchased from DIFCO. Ethylenediaminetetraacetic acid (EDTA), glucose, sodium phenol red, sodium chloride, potassium chloride, sodium hydrogen carbonate, potassium dihydrogen phosphate, and disodium hydrogen phosphate were purchased from BDH. Keratinocyte-SFM was purchased from GIBCO. For spectroscopic measurements, MRX Microplate Reader was used, which was controlled by Revelation Version 3.04.
The following solutions were prepared for use in the cell line test (MTT). • 1. Sodium chloride (8 g), potassium chloride (0.2 g), disodium hydrogen phosphate (1.15 g) and potassium dihydrogen phosphate (0.2 g) were dissolved in deionized water (1 L). This PBS solution was warmed to 37° C. at the time of use. • 2. Trypsin 250 (2.5 g), EDTA (0.2 g), glucose (1.0 g), potassium chloride (0.4 g), sodium chloride (8.0 g), sodium phenol red (0.002 g), and sodium hydrogen carbonate (0.58 g) were dissolved in deionized water (1 L). This solution was warmed to 37° C. at the time of use. • 3. Trypsin inhibitor solution was created by using feotal calf (1 ml) and was diluted in 100 ml of PBS. • 4. MTT powder (0.125 g) was dissolved in PBS buffer (25 ml) to give 5 mg/ml of MTT stock solution, which was stored at −20° C. and wrapped in foil to protect from light to create MTT stock solution. • 5. MTT stock solution was defrosted and diluted 1 in 10 in PBS buffer to give 0.5 mg/ml of working solution, which was prepared at the time of use to create an MTT working solution. • 5. Trypan blue solution was created by dissolving Trypan blue (0.04 g) in deionized water (10 ml).
The cell culture consisted of an HPV-16 immortalized human keratinocyte cell line from American Type Culture Collection (ATCC).
Cells were cultured in Serum-Free Keratinocyte Medium (Keratinocyte-SFM) supplemented with recombinant epidermal growth factor (rEGF) and bovine pituitary extract (BPE) in a T-75 flask under conditions of 5% C02 at 37° C. Fluid in the flask was changed with fresh complete medium every 3 days.
When cells grew to 60-80% confluence as determined under a microscope, the flask was washed with PBS. Small amount of trypsin-EDTA solution (1-2 ml) was added to the flask and incubated for 5 minutes at 37° C. When approximately 90% of the cells were dislodged, trypsin inhibitor solution (10 ml) was added to stop trypsin reaction. The cells were spun at 500 rpm for 10 minutes at room temperature. The cell pellet was gently resuspended in 10 ml of media. The basal cells were counted with a haemocytometer by adding trypan blue solution to determine viable cells. The cells were adjusted the density to 1×10^5 cells/mL in media.
A stock solution of each compound was prepared by dissolving compound (20 mg) in DMSO (1 ml), to give 20 mg/mL of stock solution.
A working solution was prepared by diluting a stock solution (20 μl) into media (1.98 ml) to give 200 μg/mL of working solution.
The following steps were performed to carry out the MMT experiment. 100 μl of resuspended cell suspension was added to test wells in 96-well plate, omitting column 11. Media was aspirated from each well after plate was incubated for 24 hours at 37° C., 5% CO2, then wells were washed with PBS. 100 μl of media containing 1% DMSO was added to each test well, omitting column 2. 200 μl of working solution of compound was added to each the wells, B2 to G2. 100 μl of solution was transferred to perform serial dilutions across the plate from column 2 up to column 9, and 100 μl of solution was discard from column 9. The plate was incubated for 3 days at 37° C., 5% C02. Media was removed, and wells were washed with PBS. Then 200 μl of MTT working solution was added to each well. After the plate was incubated for 2 hours at 37° C., MTT solution was removed and wells were washed with PBS. […]

Compound	IC50
COc1ccc2[nH]cc(CCN)c2c1OC [4,5-Dimethoxytryptamine]	82.5 µM
COc1cc(OC)c2[nH]ccc2c1CCN [4-(2-Aminoethyl)-5,7-dimethoxyindole]	53.9 µM
CC(=O)NCCc1c[nH]c2ccc(O)cc12 [N-Acetylseratonin, N-acetylserotonin, reference compound]	> 917 µM

same assay, conditions: HPV-16 immortalized keratinocyte proliferation

Compound	anti-proliferative activity (in words)
COc1ccc2[nH]cc(C=C[N+](=O)[O-])c2c1 [5-Methoxy-3-(2-nitroethenyl)-indole]	anti-proliferative effect
COc1ccc2[nH]cc(CCNC(C)=O)c2c1OC [4-Methoxymelatonin]	much more activity than melatonin
COc1ccc2[nH]cc(C3C=NN(C(C)=O)C3)c2c1 (stereo not shown) [1-Acetyl-4,5-dihydro-4-(5′-methoxyindol-3′-yl)-1H-pyrazole]	much more activity than melatonin
COc1ccc2[nH]cc(C=C[N+](=O)[O-])c2c1OC [4,5-Dimethoxy-3-(2-nitroethenyl)-indole]	very low IG50 values comparative to dithranol
COc1cc(OC)c2[nH]cc(C(C[N+](=O)[O-])C[N+](=O)[O-])c2c1 [5,7-Dimethoxy-3-bis(nitromethyl)methylindole]	anti-proliferative effect
COc1ccc2[nH]cc(CCNC(C)=O)c2c1 [Melatonin]	inactive
COc1cc(OC)c2[nH]ccc2c1C=C[N+](=O)[O-] [5,7-Dimethoxy-4-(2-nitroethenyl)-indole]	very low IG50 values comparative to dithranol
CC(=O)NCCc1c[nH]c2ccc(O)cc12 [N-Acetylseratonin, N-acetylserotonin, reference compound]	inactive
NCCc1c[nH]c2ccc(O)cc12 [serotonin, reference compound]	inactive
N-ethylformylmelatonin	much more activity than melatonin
COc1cc(OC)c2[nH]cc(C=C[N+](=O)[O-])c2c1 [5,7-Dimethoxy-3-(2-nitroethenyl)-indole]	very low IG50 values comparative to dithranol

same assay, conditions: Homo sapiens, Keratinocyte, 72 h, HPV-16 immortalized human keratinocytes, 3 days incubation; read-out: MTT assay IG50

Compound	IC50
COc1ccc2[nH]cc(C=C[N+](=O)[O-])c2c1 [5-Methoxy-3-(2-nitroethenyl)-indole]	15.5 µM
COc1ccc2[nH]cc(CCN)c2c1OC [4,5-Dimethoxytryptamine]	< 100 µM
COc1ccc2[nH]cc(CCNC(C)=O)c2c1OC [4-Methoxymelatonin]	119 µM
COc1ccc2[nH]cc(C3C=NN(C(C)=O)C3)c2c1 (stereo not shown) [1-Acetyl-4,5-dihydro-4-(5′-methoxyindol-3′-yl)-1H-pyrazole]	150 µM
COc1ccc2[nH]cc(C=C[N+](=O)[O-])c2c1OC [4,5-Dimethoxy-3-(2-nitroethenyl)-indole]	22 µM
COc1cc(OC)c2[nH]ccc2c1CCN [4-(2-Aminoethyl)-5,7-dimethoxyindole]	< 100 µM
COc1ccc2[nH]cc(CCNC(C)=O)c2c1 [Melatonin]	> 862 µM
COc1cc(OC)c2[nH]ccc2c1C=C[N+](=O)[O-] [5,7-Dimethoxy-4-(2-nitroethenyl)-indole]	6.62 µM
COc1cc(OC)c2[nH]cc(C=C[N+](=O)[O-])c2c1 [5,7-Dimethoxy-3-(2-nitroethenyl)-indole]	13.5 µM
COc1cc(OC)c2[nH]ccc2c1C1C=NN(C(C)=O)C1 (stereo not shown) [1-Acetyl-4,5-dihydro-4-(5′,7′-dimethoxyindol-4′-yl)-1H-pyrazole]	355 µM

same assay, conditions: Homo sapiens, Keratinocyte, 72 h, read-out: MTT assay IG50

Compound	IC50
COc1ccc2[nH]cc(C(C[N+](=O)[O-])C[N+](=O)[O-])c2c1OC [4,5-Dimethoxy-3-bis(nitromethyl)methylindole]	126 µM
COc1cc(OC)c2[nH]cc(C(C[N+](=O)[O-])C[N+](=O)[O-])c2c1 [5,7-Dimethoxy-3-bis(nitromethyl)methylindole]	20.2 µM
COc1cc(OC)c2[nH]ccc2c1C(C[N+](=O)[O-])C[N+](=O)[O-] [5,7-Dimethoxy-4-{2′-nitro-1′-(nitromethyl)ethyl}indole]	145 µM
